What was measured:
melanocortin-4 receptor [1] = target: T1, melanocortin-4 receptor (Homo sapiens, UniProt P32245); assay: Functional assay (cAMP fluorescence polarization, membrane based, agonistic activity); type: biochemical; details: for Emax: 2 h, read-out: % activation functional assay; for EC50: agonistic activity, cAMP, HEK293 membrane preparations, read-out: hMC-4R functional assay EC50/μM
T1 construct: expressed in transfected cells; host or cells: HEK293 cells (membrane preparations)
T1 sequence (P32245 whole entry): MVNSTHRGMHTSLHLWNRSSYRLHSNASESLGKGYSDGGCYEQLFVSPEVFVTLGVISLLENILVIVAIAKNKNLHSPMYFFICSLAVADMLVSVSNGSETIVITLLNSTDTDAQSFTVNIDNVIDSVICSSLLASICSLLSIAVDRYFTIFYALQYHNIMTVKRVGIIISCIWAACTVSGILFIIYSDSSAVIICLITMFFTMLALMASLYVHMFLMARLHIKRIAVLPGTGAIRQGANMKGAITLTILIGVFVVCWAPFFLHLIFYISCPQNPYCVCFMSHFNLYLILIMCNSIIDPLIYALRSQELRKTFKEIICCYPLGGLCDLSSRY

melanocortin-4 receptor [2] = target: T1, melanocortin-4 receptor; assay: Membrane binding assay (fluorescence polarization, competition with fluorescence labeled NDP-alpha-MSH); details: read-out: hMC-4R binding assay IC50/μM

Row | SMILES | Emax (melanocortin-4 receptor [1]) [%] | IC50 (melanocortin-4 receptor [2]) [µM] | EC50 (melanocortin-4 receptor [1]) [µM]
1 | CC(C)CCN(CCC(C)C)C(=O)c1ccc2nc(-c3ncco3)c(CCCN3CC[C@@H](F)C3)n2c1 [Example 72] | 2 | 0.1 to 1 | 
2 | CC(C)CCN(CCC(C)C)C(=O)c1ccc2nc(-c3ncco3)c(CCCN3CC(O)C3)n2c1 [Example 73] | -3 | 0.1 to 1 | 
3 | CC(C)CCN(CCC(C)C)C(=O)c1ccc2nc(-c3ncco3)c(CCCN3CCC3)n2c1 [Example 74] | 1 | 0.1 to 1 | 
4 | CC(C)CCN(CCC(C)C)C(=O)c1ccc2nc(-c3ncco3)c(CCCN(C)C(C)C)n2c1 [Example 75] | 1 | < 0.1 | 
5 | CC(C)CCN(CCC(C)C)C(=O)c1ccc2nc(-c3ncco3)c(CCCN3CCC[C@H]3CO)n2c1 [Example 76] | 4 | 0.1 to 1 | 
6 | CC(C)CCN(CCC(C)C)C(=O)c1ccc2nc(-c3ncco3)c(CCCN3CCC(O)CC3)n2c1 [Example 77] | 4 | < 0.1 | 
7 | CC(C)CCN(CCC(C)C)C(=O)c1ccc2nc(-c3ncco3)c(CCCN3CC[C@H](F)C3)n2c1 [Example 78] | 2 | < 0.1 | 
8 | CC(C)CCN(CCC(C)C)C(=O)c1ccc2nc(-c3ccc(OCCO)nc3)c(CCCN3CCCC3)n2c1 [Example 79] | 11 | < 0.1 | 
9 | CC(C)CCN(CCC(C)C)C(=O)c1ccc2nc(-c3ncco3)c(CCCN3CC[C@H](O)C3)n2c1 [Example 80] | -35 | 0.1 to 1 | 0.1 to 1
10 | CC(C)CCN(CCC(C)C)C(=O)c1ccc2nc(-c3ccc(=O)n(CCO)c3)c(CCCN3CCCC3)n2c1 [Example 81] | -9 | < 0.1 | 
11 | COc1ccc(-c2nc3ccc(C(=O)N(CCC(C)C)CCC(C)C)cn3c2CCCN2CCCC2)cn1 [Example 82] | -17 | < 0.1 | < 0.1
12 | COc1ccc(-c2nc3ccc(C(=O)N(CCC(C)C)CCC(C)C)cn3c2CCCN(C)C)cn1 [Example 83] | -1 | < 0.1 | 
13 | CC(C)CCN(CCC(C)C)C(=O)c1ccc2nc(-c3ncccn3)c(CCCN3CCCC3)n2c1 [Example 84] | -8 | < 0.1 | 
14 | CC(C)CCN(CCC(C)C)C(=O)c1ccc2nc(-c3ncco3)c(CCCN3CCC[C@@H]3C)n2c1 [Example 85] | -2 | < 0.1 | 
15 | CC(C)CCN(CCC(C)C)C(=O)c1ccc2nc(-c3ncco3)c(CCCN3CCC[C@H]3C)n2c1 [Example 86] | -11 | < 0.1 | 
16 | CC(C)CCN(CCC(C)C)C(=O)c1ccc2nc(-c3cccnc3N)c(CCCN(C)C)n2c1 [Example 87] | 0 | > 1 | 
17 | CC(C)CCN(CCC(C)C)C(=O)c1ccc2nc(-c3cc[nH]c(=O)c3)c(CCCN(C)C)n2c1 [Example 88] | -2 | 0.1 to 1 | 
18 | CC(C)CCN(CCC(C)C)C(=O)c1ccc2nc(-c3cc[nH]c(=O)c3)c(CCCN3CCCC3)n2c1 [Example 89] | -25 | < 0.1 | < 0.1
19 | CC(C)CCN(CCC(C)C)C(=O)c1ccc2nc(-c3cccnc3N)c(CCCN3CCCC3)n2c1 [Example 90] | -41 | 0.1 to 1 | > 1
20 | CC(C)CCN(CCC(C)C)C(=O)c1ccc2nc(-c3ccc(=O)n(CCCO)c3)c(CCCN3CCCC3)n2c1 [Example 91] | -29 | 0.1 to 1 | 0.1 to 1

Row | SMILES | Emax (melanocortin-4 receptor [1]) [%] | IC50 (melanocortin-4 receptor [2]) [µM] | EC50 (melanocortin-4 receptor [1]) [µM]
21 | CC(C)CCN(CCC(C)C)C(=O)c1ccc2nc(-c3ccc(OCCCO)nc3)c(CCCN3CCCC3)n2c1 [Example 92] | -31 | 0.1 to 1 | < 0.1
22 | CC(C)CCN(CCC(C)C)C(=O)c1ccc2nc(-c3ccc(=O)n(CC(C)O)c3)c(CCCN3CCCC3)n2c1 (stereo not shown) [Example 93] | 0 | 0.1 to 1 | 
23 | CC(C)CCN(CCC(C)C)C(=O)c1ccc2nc(-c3ccc(OCC(C)O)nc3)c(CCCN3CCCC3)n2c1 (stereo not shown) [Example 94] | -13 | > 1 | 
24 | COCCn1cc(-c2nc3ccc(C(=O)N(CCC(C)C)CCC(C)C)cn3c2CCCN2CCCC2)ccc1=O [Example 95] | 0 | < 0.1 | 
25 | COCCOc1ccc(-c2nc3ccc(C(=O)N(CCC(C)C)CCC(C)C)cn3c2CCCN2CCCC2)cn1 [Example 96] | 0 | < 0.1 | 
26 | CC(=O)OCCOc1ccc(-c2nc3ccc(C(=O)N(CCC(C)C)CCC(C)C)cn3c2CCCN2CCCC2)cn1 [Example 97] | 1 | < 0.1 | 
27 | CC(C)CCN(CCC(C)C)C(=O)c1ccc2nc(C3CCOCC3)c(CCCN3CCCC3)n2c1 [Example 98] | -8 | 0.1 to 1 | 
28 | CC(=O)OCCn1cc(-c2nc3ccc(C(=O)N(CCC(C)C)CCC(C)C)cn3c2CCCN2CCCC2)ccc1=O [Example 99] | 4 | < 0.1 | 
29 | CC(C)CCN(CCC(C)C)C(=O)c1ccc2nc(-c3ccc(=O)[nH]c3)c(CCCN3CCCC3C)n2c1 (stereo not shown) [Example 100] | -22 | < 0.1 | 
30 | CC(=O)OCCn1cc(-c2nc3ccc(C(=O)N(CCC(C)C)CCC(C)C)cn3c2CCCN2CCCC2C)ccc1=O (stereo not shown) [Example 101] | -25 | < 0.1 | 
31 | CC(=O)OCCOc1ccc(-c2nc3ccc(C(=O)N(CCC(C)C)CCC(C)C)cn3c2CCCN2CCCC2C)cn1 (stereo not shown) [Example 102] | -15 | < 0.1 | 
32 | CC(C)CCN(CCC(C)C)C(=O)c1ccc2nc(-c3ccc(=O)n(CCO)c3)c(CCCN3CCCC3C)n2c1 (stereo not shown) [Example 103] | -20 | < 0.1 | 
33 | CC(C)CCN(CCC(C)C)C(=O)c1ccc2nc(-c3ccc(OCCO)nc3)c(CCCN3CCCC3C)n2c1 (stereo not shown) [Example 104] | -15 | < 0.1 | 
34 | CC(=O)OCCn1cc(-c2nc3ccc(C(=O)N(CCC4CC4)CCC4CC4)cn3c2CCCN2CCCC2)ccc1=O [Example 105] | -24 | 0.1 to 1 | 
35 | CC(=O)OCCOc1ccc(-c2nc3ccc(C(=O)N(CCC4CC4)CCC4CC4)cn3c2CCCN2CCCC2)cn1 [Example 106] | 0 | 0.1 to 1 | 
36 | O=C(c1ccc2nc(-c3ccc(=O)n(CCO)c3)c(CCCN3CCCC3)n2c1)N(CCC1CC1)CCC1CC1 [Example 107] | -17 | 0.1 to 1 | 
37 | O=C(c1ccc2nc(-c3ccc(OCCO)nc3)c(CCCN3CCCC3)n2c1)N(CCC1CC1)CCC1CC1 [Example 108] | -19 | 0.1 to 1 | 
38 | CC1CCCN1CCCc1c(-c2ccc(=O)[nH]c2)nc2ccc(C(=O)N(CCC3CC3)CCC3CC3)cn12 (stereo not shown) [Example 109] | -23 | < 0.1 | 
39 | CC(=O)OCCn1cc(-c2nc3ccc(C(=O)N(CCC4CC4)CCC4CC4)cn3c2CCCN2CCCC2C)ccc1=O (stereo not shown) [Example 110] | -23 | 0.1 to 1 | 
40 | CC1CCCN1CCCc1c(-c2ccc(=O)n(CCO)c2)nc2ccc(C(=O)N(CCC3CC3)CCC3CC3)cn12 (stereo not shown) [Example 111] | -25 | 0.1 to 1 | 

Row | SMILES | Emax (melanocortin-4 receptor [1]) [%] | IC50 (melanocortin-4 receptor [2]) [µM] | EC50 (melanocortin-4 receptor [1]) [µM]
41 | CC1CCCN1CCCc1c(-c2ccc(OCCO)nc2)nc2ccc(C(=O)N(CCC3CC3)CCC3CC3)cn12 (stereo not shown) [Example 112] | -9 | < 0.1 | 
42 | CC(C)CCN(CCC(C)C)C(=O)c1ccc2nc(-c3ccc(C#N)cc3)c(CN3CCC(N(C)C)CC3)n2c1 [Example 113] | 0 | 0.1 to 1 | 
43 | COc1cccc(-c2nc3ccc(C(=O)N(CCC(C)C)CCC(C)C)cn3c2CN2CCC(N(C)C)CC2)c1 [Example 114] | 0 | 0.1 to 1 | 
44 | COc1cccc(-c2nc3ccc(C(=O)N(CCC(C)C)CCC(C)C)cn3c2CN2CCC(N)CC2)c1 [Example 116] | 0 | 0.1 to 1 | 
45 | CC(C)CCN(CCC(C)C)C(=O)c1ccc2nc(-c3ccc(Cl)cc3)c(CN3CCC(N)CC3)n2c1 [Example 117] | 0 | 0.1 to 1 | 
46 | CC(C)CCN(CCC(C)C)C(=O)c1ccc2nc(-c3ccc(F)cc3)c(CN3CCC(N)CC3)n2c1 [Example 118] | 0 | 0.1 to 1 | 
47 | CC(C)CCN(CCC(C)C)C(=O)c1ccc2nc(-c3cccc(Cl)c3)c(CN3CCC(N)CC3)n2c1 [Example 120] | 0 | > 1 | 
48 | COc1cccc(-c2nc3ccc(C(=O)N(CCC(C)C)CCC(C)C)cn3c2CN2CCNCC2)c1 [Example 121] | 0 | > 1 | 
49 | CC(C)CCN(CCC(C)C)C(=O)c1ccc2nc(-c3cccc(C#N)c3)c(CN3CCC(N)CC3)n2c1 [Example 122] | 0 | 0.1 to 1 | 
50 | COc1cccc(-c2nc3ccc(C(=O)N(CCC(C)C)CCC(C)C)cn3c2CN2CCC(N)C2)c1 (stereo not shown) [Example 123] | 0 | > 1 | 
51 | CC(C)CCN(CCC(C)C)C(=O)c1ccc2nc(-c3ccc(-c4ccccn4)s3)c(CN3CCC(N)CC3)n2c1 [Example 124] | 0 | 0.1 to 1 | 
52 | CC(C)CCN(CCC(C)C)C(=O)c1ccc2nc(-c3cccs3)c(CN3CCC(N)CC3)n2c1 [Example 125] | 0 | 0.1 to 1 | 
53 | CC(C)CCN(CCC(C)C)C(=O)c1ccc2nc(-c3ccc(Cl)cc3)c(CN3CCCC(N)C3)n2c1 (stereo not shown) [Example 126] | 0 | > 1 | 
54 | CC(C)CCN(CCC(C)C)C(=O)c1ccc2nc(-c3ccc(Cl)cc3)c(CN3C[C@H]4CNC[C@H]4C3)n2c1 [Example 127] | 0 | 0.1 to 1 | 
55 | CC(C)CCN(CCC(C)C)C(=O)c1ccc2nc(-c3ccc(Cl)cc3)c(CN3CCN4CCCC4C3)n2c1 (stereo not shown) [Example 128] | 0 | > 1 | 
56 | COc1ccc(-c2nc3ccc(C(=O)N(CCC(C)C)CCC(C)C)cn3c2CN2CCC(N(C)C)CC2)c(OC)c1 [Example 129] | 0 | > 1 | 
57 | COc1ccc(OC)c(-c2nc3ccc(C(=O)N(CCC(C)C)CCC(C)C)cn3c2CN2CCC(N(C)C)CC2)c1 [Example 130] | 0 | > 1 | 
58 | CC(C)CCN(CCC(C)C)C(=O)c1ccc2nc(-c3ccc(Cl)c(Cl)c3)c(CN3CCC(N(C)C)CC3)n2c1 [Example 131] | 0 | < 0.1 | 
59 | CC(C)CCN(CCC(C)C)C(=O)c1ccc2nc(-c3ccccc3)c(CN3CCC(N)CC3)n2c1 [Example 133] | 0 | 0.1 to 1 | 

Reference: patent publication US8236818B2, “Substituted imidazopyridine derivatives as melanocortin-4 receptor antagonists” (Santhera Pharmaceuticals (Schweiz) AG, priority 2007, dated 2012)
